Test [1] has as its target Stimulator of interferon genes protein (Homo sapiens) (UniProt Q86WV6). Kind of test: Induction of STING dimerization in human THP1 cells at 2.5 to 20 uM measured after 5 hrs by Western blot analysis. It counts as cell-based. Particulars: THP-1, filed as agonist, dose 2.5-20 µM.
Test [2] has as its system RAW264.7. Kind of test: Cytotoxicity against mouse RAW264.7 cells assessed as cell viability measured after 72 hrs by MTT assay. It counts as functional, cell-based. The note with it: RAW264.7, 72 h.
Test [3] deals with Stimulator of interferon genes protein (Homo sapiens), Q86WV6 [C88S,C91S]. The experiment in a line: Induction of oligomerization of STING C88S/C91S (unknown origin) double mutant in human HeLa cells transfected with wild type STING assessed as intracellular puncta formation at 10 uM measured after 1 hr by DAPI staining based immunofluorescence microscopy. In kind it is cell-based. The note with it: filed as agonist.

The test system of test [4] is SARS-CoV-2. Kind of test: Antiviral activity against SARS-CoV-2 assessed as inhibition of replication by qRT-PCR analysis. Particulars: Severe acute respiratory syndrome coronavirus 2. In kind it is functional, organism-based.
In test [5] the target is Stimulator of interferon genes protein (Homo sapiens) (UniProt Q86WV6). The experiment in a line: Induction of oligomerization of STING in human HeLa cells transfected with wild type STING (unknown origin) assessed as intracellular puncta formation at 10 uM measured after 1 hr by DAPI staining based immunofluorescence microscopy. In kind it is cell-based. The note with it: filed as agonist.

In test [6] the test system is Stimulator of interferon genes protein (Homo sapiens), Q86WV6 [V113Q,G114Q,P115Q]. Kind of test: Induction of STING V113Q/G114Q/P115Q mutant (unknown origin) mediated TBK1 phosphorylation in human HeLa cells transfected with STING C148A mutant at 10 uM measured after 5 hr by Western blot analysis. In kind it is cell-based. Particulars: filed as agonist.
Test [7] deals with HEK-293T. The experiment in a line: Cytotoxicity against STING-deficient human 293T cells assessed as cell viability measured after 72 hrs by MTT assay. In kind it is functional, cell-based.
For test [8], the target named is Stimulator of interferon genes protein (Homo sapiens) (UniProt Q86WV6). Kind of test: Induction of STING dimerization in human HT-1080 cells at 2.5 to 20 uM measured after 5 hrs by Western blot analysis. In kind it is cell-based. Particulars: filed as agonist, dose 2.5-20 µM.
Test [9] has the same target. The experiment in a line: Induction of STING-dependent gene expression in human HT-1080 cells assessed as increase in ADU-S100 induced IFNbeta mRNA expression at 20 uM incubated for 8 hrs by qRT-PCR analysis. It counts as cell-based. Particulars: filed as agonist.
The test system of test [10] is RAW264.7. Kind of test: Synergistic increase in HSV infection-induced TBK1 phosphorylation in mouse RAW264.7 cells by Western blot analysis. It counts as functional, cell-based.
The target in test [11] is Stimulator of interferon genes protein (Homo sapiens) (UniProt Q86WV6). Kind of test: Induction of STING-dependent gene expression in human HT-1080 cells assessed as increase in diABZI induced IFNbeta mRNA expression at 20 uM incubated for 8 hrs by qRT-PCR analysis. The note with it: filed as agonist. It counts as cell-based.
For test [12] the target is unchanged. Kind of test: Induction of STING-dependent gene expression in human HT-1080 cells assessed as TNFalpha mRNA expression at 20 uM incubated for 8 hrs by qRT-PCR analysis. In kind it is cell-based. Particulars: filed as agonist.
Test [13] has as its system RAW264.7. The experiment in a line: Synergistic increase in […]-induced TBK1 phosphorylation in mouse RAW264.7 cells by Western blot analysis. It counts as functional, cell-based.

Molecules are shown by their SMILES. Calls of active or inactive are those of the source. The calls are words filed in the database; no cut-off is given here.

Sequence of Stimulator of interferon genes protein (Homo sapiens) (Q86WV6 whole entry): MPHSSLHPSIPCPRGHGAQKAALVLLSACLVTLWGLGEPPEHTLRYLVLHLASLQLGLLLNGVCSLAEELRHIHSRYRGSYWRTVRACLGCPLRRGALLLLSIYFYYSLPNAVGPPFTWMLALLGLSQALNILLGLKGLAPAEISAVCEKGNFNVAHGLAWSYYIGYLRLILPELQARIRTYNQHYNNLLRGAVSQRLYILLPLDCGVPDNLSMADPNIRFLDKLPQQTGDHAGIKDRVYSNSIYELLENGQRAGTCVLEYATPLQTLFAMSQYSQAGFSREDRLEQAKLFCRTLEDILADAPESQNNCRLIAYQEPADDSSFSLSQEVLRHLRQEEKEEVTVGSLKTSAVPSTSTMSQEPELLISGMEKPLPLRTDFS
Sequence of Stimulator of interferon genes protein (Homo sapiens), Q86WV6 [C88S,C91S] (Q86WV6 whole entry C88S/C91S): as the sequence (Q86WV6 whole entry) above, with C88S, C91S counted along it
Sequence of Stimulator of interferon genes protein (Homo sapiens), Q86WV6 [V113Q,G114Q,P115Q] (Q86WV6 whole entry V113Q/G114Q/P115Q): as the sequence (Q86WV6 whole entry) above, with V113Q, G114Q, P115Q counted along it

Consider `O=C(NCCCCCNC(=O)c1ccc([N+](=O)[O-])o1)c1ccc([N+](=O)[O-])o1`, for which the outcome in test [1], in test [3], in [5], in test [6], in [8] and in test [9] was Active. The result in test [10], in [11], in test [12] and in test [13] was Active. Besides, the IC50 came to 8.69 µM in [2] and 22.4 µM in [7]. Moreover, the EC50 in [4] came out at 10.7 µM.

(Values after ChEMBL document CHEMBL5385872, “Design and syntheses of a bimolecular STING agonist based on the covalent STING antagonist” (Eur J Med Chem, 2023).)
